{
  "source": "ChEMBL document CHEMBL1201862",
  "about": "“PubChem BioAssay data set” (2004)",
  "key": {"[1]": {"target": "T1, Methionyl-tRNA synthetase, putative (Trypanosoma brucei brucei, UniProt Q38C91)", "T1 sequence (Q38C91 whole entry)": "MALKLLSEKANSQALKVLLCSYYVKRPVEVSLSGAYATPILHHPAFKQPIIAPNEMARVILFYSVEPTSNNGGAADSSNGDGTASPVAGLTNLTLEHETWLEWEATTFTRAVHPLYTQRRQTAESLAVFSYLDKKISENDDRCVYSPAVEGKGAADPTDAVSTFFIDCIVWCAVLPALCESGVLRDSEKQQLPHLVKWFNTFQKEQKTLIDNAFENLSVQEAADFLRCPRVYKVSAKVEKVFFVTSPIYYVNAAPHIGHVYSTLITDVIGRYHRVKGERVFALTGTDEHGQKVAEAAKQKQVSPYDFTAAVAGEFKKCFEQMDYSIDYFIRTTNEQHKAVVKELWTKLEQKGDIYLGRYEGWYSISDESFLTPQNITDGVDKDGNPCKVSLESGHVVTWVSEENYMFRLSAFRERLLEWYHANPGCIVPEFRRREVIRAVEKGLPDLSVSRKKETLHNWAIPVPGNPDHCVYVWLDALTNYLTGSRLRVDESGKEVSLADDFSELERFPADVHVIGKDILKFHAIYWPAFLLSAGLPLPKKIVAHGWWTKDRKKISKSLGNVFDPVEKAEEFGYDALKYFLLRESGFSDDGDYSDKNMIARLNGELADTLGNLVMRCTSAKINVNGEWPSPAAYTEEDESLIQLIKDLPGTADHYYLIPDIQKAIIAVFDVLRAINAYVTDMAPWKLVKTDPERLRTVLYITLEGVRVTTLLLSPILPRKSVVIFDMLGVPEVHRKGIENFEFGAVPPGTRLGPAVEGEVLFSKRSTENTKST", "type": "functional, Trypanosoma brucei brucei strain 927/4 GUTat10.1"}, "[2]": {"assay": "Counterscreen for inhibitors of Trypanosoma brucei methionyl tRNA synthetase (MetRS): Luminescence-based cell-based high throughput dose response assay to identify compounds that are cytotoxic to Jurkat human T lymphocyte cells.", "type": "functional"}, "[3]": {"target": "T1, Methionyl-tRNA synthetase, putative", "type": "functional, Trypanosoma brucei brucei strain 927/4 GUTat10.1", "remark": "listed apart in the source"}, "[4]": {"target": "Eukaryotic translation initiation factor 4E (Mus musculus, UniProt P63073)", "sequence (P63073 whole entry)": "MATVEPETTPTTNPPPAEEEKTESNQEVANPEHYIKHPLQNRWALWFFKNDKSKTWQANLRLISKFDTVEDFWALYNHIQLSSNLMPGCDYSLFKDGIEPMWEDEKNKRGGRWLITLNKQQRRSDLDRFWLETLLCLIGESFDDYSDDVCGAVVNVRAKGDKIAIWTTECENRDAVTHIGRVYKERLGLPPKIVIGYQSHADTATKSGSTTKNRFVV", "assay": "blockers of eIF4G binding by eIF4E – biochemical, TR-FRET, dose response (AID 855);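 further: potency for disrupting eIF4E binding to eIF4GI seen as loss of FRET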", "type": "functional"}, "[5]": {"target": "T2, Long-chain-fatty-acid--AMP ligase FadD28 (Mycobacterium tuberculosis, UniProt P9WQ59)", "T2 sequence (P9WQ59 whole entry)": "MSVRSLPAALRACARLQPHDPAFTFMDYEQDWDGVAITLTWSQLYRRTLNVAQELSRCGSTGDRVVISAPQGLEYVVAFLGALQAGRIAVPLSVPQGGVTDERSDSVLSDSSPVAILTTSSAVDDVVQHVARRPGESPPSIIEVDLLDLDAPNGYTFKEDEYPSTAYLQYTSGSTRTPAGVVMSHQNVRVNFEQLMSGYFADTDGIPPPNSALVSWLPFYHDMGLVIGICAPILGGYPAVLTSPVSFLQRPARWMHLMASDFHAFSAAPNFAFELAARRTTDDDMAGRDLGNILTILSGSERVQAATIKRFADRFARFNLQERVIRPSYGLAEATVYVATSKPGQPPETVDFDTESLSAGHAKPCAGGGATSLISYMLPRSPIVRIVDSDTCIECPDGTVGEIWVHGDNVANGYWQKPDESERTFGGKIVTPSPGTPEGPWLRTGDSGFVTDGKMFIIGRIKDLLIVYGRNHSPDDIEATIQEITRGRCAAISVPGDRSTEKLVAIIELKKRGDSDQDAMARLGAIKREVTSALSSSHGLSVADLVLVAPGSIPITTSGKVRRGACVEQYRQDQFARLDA", "assay": "Fluorescence polarization aasay to screen for inhibitors that compete for the binding of FadD28 to a bisubstrate Measured in Biochemical System Using Plate Reader - 2147-01_Inhibitor_Dose_CherryPick_Activity.", "type": "functional, Mycobacterium tuberculosis H37Rv"}, "[6]": {"assay": "Luminescence Cell-Based Dose Confirmation HTS to Identify Activators of 5'UTR Stem-Loop Driven Alpha-Synuclein mRNA Translation in H4 Neuroglioblastoma Cells. [Related pubchem assays: 1829 (Project Summary), 1814 (Primary HTS)]", "type": "functional"}, "[7]": {"assay": "Luminescence Cell-Based Dose Response HTS to Identify Activators of Luciferase Translation or Activity in H4 […] Cells. [Related pubchem assays: 1829 (Project Summary), 1814 (Primary HTS)]", "type": "functional"}, "[8]": {"tested_on": "H4", "assay": "Luminescence Cell-Based Dose Response HTS to Identify Activators of 5'UTR Stem-Loop Driven Prion Protein mRNA Translation in H4 Neuroglioblastoma Cells. [Related pubchem assays: 1829 (Project Summary), 1814 (Primary HTS)]", "type": "functional", "settings": "Homo sapiens"}, "[9]": {"target": "T3, Heat shock factor protein 1 (Mus musculus, UniProt P38532)", "T3 sequence (P38532 whole entry)": "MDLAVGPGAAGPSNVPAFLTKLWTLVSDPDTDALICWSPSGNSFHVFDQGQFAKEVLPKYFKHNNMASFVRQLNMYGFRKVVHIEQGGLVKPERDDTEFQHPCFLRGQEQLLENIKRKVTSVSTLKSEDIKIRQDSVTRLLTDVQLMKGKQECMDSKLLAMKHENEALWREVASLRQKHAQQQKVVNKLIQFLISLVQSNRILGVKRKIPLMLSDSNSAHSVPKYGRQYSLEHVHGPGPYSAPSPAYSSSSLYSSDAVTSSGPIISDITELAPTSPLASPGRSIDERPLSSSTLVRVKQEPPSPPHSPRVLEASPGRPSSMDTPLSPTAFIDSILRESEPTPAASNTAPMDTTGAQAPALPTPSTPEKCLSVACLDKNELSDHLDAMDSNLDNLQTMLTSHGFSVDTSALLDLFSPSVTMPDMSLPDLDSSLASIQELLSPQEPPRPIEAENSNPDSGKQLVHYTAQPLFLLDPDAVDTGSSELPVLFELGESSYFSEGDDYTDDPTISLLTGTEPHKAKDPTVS", "assay": "decrease of HSF1-responsive luciferase luminescence – cell-based, NIH3T3, dose retest, confirmation (AID 2382);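 further: NIH3T3 fibroblasts with HSF1-driven luciferase reporter stressed by proteasome inhibitor MG132; luminescence from HSF1-driven luciferase expression after 8 hours of MG132 stress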", "type": "functional"}, "[10]": {"assay": "microbe, parasite or virus in culture", "type": "functional", "settings": "Mycobacterium tuberculosis"}, "[11]": {"assay": "Fluorescence-based cell-based high throughput dose response assay for inhibitors of the interaction of nucleotide-binding oligomerization domain containing 2 (NOD2) and the receptor-interacting serine-threonine kinase 2 (RIPK2).", "type": "functional, Homo sapiens", "settings": "Homo sapiens"}, "[12]": {"target": "Paired box protein Pax-8 (Homo sapiens, UniProt Q06710)", "sequence (Q06710 whole entry)": "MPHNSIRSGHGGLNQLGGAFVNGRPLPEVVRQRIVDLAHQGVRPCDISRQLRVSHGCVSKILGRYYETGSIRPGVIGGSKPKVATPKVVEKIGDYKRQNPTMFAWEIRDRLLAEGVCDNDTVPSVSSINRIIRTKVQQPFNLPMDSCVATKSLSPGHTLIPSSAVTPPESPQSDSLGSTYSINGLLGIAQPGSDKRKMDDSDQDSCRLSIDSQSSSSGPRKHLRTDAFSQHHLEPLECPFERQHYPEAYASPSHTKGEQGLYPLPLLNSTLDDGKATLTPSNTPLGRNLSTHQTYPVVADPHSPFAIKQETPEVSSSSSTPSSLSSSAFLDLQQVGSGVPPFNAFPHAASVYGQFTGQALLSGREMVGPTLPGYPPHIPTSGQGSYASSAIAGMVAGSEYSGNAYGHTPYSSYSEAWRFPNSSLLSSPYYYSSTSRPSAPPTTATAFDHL", "assay": "PAX8 transcriptional activity inhibition in RMG-I – RMG-I cells, luciferase, cherry-pick, dose response (AID 687027);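 further: luciferase reporter driven by Pax8 target thyroperoxidase promoter measured by SteadyGlo luminescence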", "type": "functional, cell-based"}, "[13]": {"assay": "A cytotoxicity screen of small molecule inhibitors of the PhoP region in Salmonella typhi identified in the primary screen. [Related pubchem assays: 1850, 1864, 1985 ]", "type": "functional"}, "[14]": {"target": "T4, Fructose-bisphosphate aldolase (Mycobacterium tuberculosis, UniProt P9WQA3)", "T4 sequence (P9WQA3 whole entry)": "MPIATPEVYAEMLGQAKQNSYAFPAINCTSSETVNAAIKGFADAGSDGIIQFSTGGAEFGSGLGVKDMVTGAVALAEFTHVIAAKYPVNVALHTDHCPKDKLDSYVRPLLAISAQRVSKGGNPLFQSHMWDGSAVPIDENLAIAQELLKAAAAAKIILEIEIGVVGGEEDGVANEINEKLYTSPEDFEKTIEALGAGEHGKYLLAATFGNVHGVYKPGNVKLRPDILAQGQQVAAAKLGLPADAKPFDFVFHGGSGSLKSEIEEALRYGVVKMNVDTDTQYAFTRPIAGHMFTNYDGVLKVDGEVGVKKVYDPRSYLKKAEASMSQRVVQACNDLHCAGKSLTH", "assay": "Fluorescence-based biochemical high throughput dose response assay for inhibitors of the fructose-bisphosphate aldolase (FBA) of M. tuberculosis.", "type": "functional"}, "[15]": {"target": "T5, Corticotropin-releasing factor receptor 2/Corticotropin-releasing factor-binding protein (Homo sapiens, UniProt P24387+Q13324)", "T5 sequence (Q13324 whole entry)": "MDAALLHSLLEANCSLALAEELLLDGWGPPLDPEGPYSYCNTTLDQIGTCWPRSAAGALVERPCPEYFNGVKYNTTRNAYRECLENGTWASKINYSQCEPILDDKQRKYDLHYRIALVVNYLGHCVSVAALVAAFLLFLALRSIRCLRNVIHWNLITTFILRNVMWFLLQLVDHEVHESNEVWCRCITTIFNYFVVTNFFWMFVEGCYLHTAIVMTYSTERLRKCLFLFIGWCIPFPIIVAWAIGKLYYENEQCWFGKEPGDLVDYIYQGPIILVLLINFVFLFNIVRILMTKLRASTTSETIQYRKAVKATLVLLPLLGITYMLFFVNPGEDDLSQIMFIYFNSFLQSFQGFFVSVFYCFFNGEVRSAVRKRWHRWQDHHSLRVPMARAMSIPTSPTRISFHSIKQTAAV", "T5 sequence (P24387 whole entry)": "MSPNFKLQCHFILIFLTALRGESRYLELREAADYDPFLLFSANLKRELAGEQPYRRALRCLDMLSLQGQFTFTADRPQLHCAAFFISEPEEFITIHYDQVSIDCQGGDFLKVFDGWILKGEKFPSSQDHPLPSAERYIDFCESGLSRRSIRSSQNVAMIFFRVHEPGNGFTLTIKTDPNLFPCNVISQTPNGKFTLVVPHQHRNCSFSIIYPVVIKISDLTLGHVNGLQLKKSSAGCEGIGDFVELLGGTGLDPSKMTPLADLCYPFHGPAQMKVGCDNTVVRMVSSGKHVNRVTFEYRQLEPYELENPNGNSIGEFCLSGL", "assay": "Dose Response confirmation of uHTS hits for small molecule antagonists of the CRF-binding protein and CRF-R2 receptor complex.", "type": "functional", "settings": "read-out: IC50_Mean"}, "[16]": {"target": "T5, Corticotropin-releasing factor receptor 2/Corticotropin-releasing factor-binding protein", "assay": "activators of CRF receptor 2 with binding protein – uHTS hits, confirmation (AID 602473)", "type": "functional", "settings": "read-out: EC50_Mean"}, "[17]": {"assay": "blockers of CRF-binding protein–CRF-R2 complex – cell-based, uHTS hits, 384-well, dose response (AID 651639)", "type": "functional, Homo sapiens", "settings": "read-out: IC50_Mean"}, "[18]": {"target": "Large T antigen (Simian virus 40, UniProt P03070)", "sequence (P03070 whole entry)": "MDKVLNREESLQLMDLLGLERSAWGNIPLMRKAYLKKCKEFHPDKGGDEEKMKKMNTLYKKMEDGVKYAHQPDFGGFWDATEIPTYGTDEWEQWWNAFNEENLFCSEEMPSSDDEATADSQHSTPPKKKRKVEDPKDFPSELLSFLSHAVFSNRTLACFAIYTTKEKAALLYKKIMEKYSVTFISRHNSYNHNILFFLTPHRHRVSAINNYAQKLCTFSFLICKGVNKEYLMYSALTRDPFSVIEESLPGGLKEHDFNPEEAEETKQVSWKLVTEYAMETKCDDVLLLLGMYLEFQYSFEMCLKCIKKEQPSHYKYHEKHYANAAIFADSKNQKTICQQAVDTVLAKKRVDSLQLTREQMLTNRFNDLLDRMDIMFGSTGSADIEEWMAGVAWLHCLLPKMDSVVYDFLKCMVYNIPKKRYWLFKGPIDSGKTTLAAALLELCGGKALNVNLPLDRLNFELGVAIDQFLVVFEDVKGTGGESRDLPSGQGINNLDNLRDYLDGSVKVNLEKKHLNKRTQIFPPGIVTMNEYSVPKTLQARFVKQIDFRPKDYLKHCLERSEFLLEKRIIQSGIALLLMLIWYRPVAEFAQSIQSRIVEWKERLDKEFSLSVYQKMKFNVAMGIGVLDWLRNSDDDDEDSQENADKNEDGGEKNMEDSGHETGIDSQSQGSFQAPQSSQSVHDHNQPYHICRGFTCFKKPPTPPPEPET", "type": "functional, Betapolyomavirus macacae"}, "[19]": {"target": "T6, Sentrin-specific protease 8 (Homo sapiens, UniProt Q96LD8)", "T6 sequence (Q96LD8 whole entry)": "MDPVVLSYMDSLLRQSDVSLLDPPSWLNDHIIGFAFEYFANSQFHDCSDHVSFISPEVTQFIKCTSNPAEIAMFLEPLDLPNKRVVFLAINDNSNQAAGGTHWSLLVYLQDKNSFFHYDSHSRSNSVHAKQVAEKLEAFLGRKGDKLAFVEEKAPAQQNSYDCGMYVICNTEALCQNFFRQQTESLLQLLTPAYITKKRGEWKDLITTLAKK", "type": "functional"}, "[20]": {"target": "T6, Sentrin-specific protease 8", "type": "functional", "remark": "listed apart in the source"}},
  "note": "Activity calls are given as the source filed them.",
  "data": [
    {"smiles": "O=C(CSc1nc2cc3ccccc3cc2[nH]1)Nc1ccc(F)cc1", "values": [
      {"measurement": "IC50", "setting": "[1]", "value": "119 µM (inactive)"},
      {"measurement": "IC50", "setting": "[2]", "value": "51.7 µM (inactive)"},
      {"measurement": "IC50", "setting": "[3]", "value": "100 µM (inactive)"}
    ]},
    {"smiles": "COc1cccc(NC(=O)Nc2ccc(C(C)(C)C)cc2)c1", "values": [
      {"measurement": "IC50", "setting": "[4]", "value": "50 µM (inactive)"},
      {"measurement": "AC50", "setting": "[5]", "value": "> 100 µM (inactive)"}
    ]},
    {"smiles": "COc1nn(-c2ccccc2)c(=O)c(Cl)c1Cl", "values": [
      {"measurement": "EC50", "setting": "[6]", "value": "> 120 µM (not active)"},
      {"measurement": "EC50", "setting": "[7]", "value": "> 120 µM (not active)"},
      {"measurement": "EC50", "setting": "[8]", "value": "> 120 µM (not active)"},
      {"measurement": "EC50", "setting": "[9]", "value": "9.89 µM (active)"},
      {"measurement": "CC50", "setting": "[10]", "value": "8.79 µM (active)"},
      {"measurement": "IC50", "setting": "[11]", "value": "4.58 µM (active)"},
      {"measurement": "AC50", "setting": "[12]", "value": "6.72 µM (active)"}
    ]},
    {"smiles": "Cc1cc(-c2nc3ccccc3o2)c2ccccc2n1", "values": [
      {"measurement": "EC50", "setting": "[13]", "value": "> 50 µM (active)"},
      {"measurement": "IC50", "setting": "[14]", "value": "2.96 µM (active)"}
    ]},
    {"smiles": "CC(=O)c1cccc(NC(S)=NC2CCCCCCC2)c1", "values": [
      {"measurement": "AC50", "setting": "[5]", "value": "> 100 µM (inactive)"}
    ]},
    {"smiles": "O=C(Nc1cc(-c2ccccc2)sc1C(=O)O)c1cccc(F)c1", "values": [
      {"measurement": "IC50", "setting": "[15]", "value": "23.5 µM (active)"},
      {"measurement": "EC50", "setting": "[16]", "value": "> 53 µM (inactive)"},
      {"measurement": "IC50", "setting": "[17]", "value": "14.2 µM (active)"}
    ]},
    {"smiles": "CCOc1ccc(N2Nc3[nH]nc(N)c3N2)cc1", "values": [
      {"measurement": "IC50", "setting": "[18]", "value": "18 µM (active)"},
      {"measurement": "IC50", "setting": "[19]", "value": "40.6 µM (active)"},
      {"measurement": "IC50", "setting": "[20]", "value": "52.3 µM (active)"}
    ]}
  ]
}
